We go through 40 compounds from patent publication US11352363B1, “Spiropyrrolidine derived antiviral agents” (Enanta Pharmaceuticals, Inc., priority 2020, dated 2022).

The IC50 is the point on the concentration scale where inhibition reaches its midpoint.

The test has as its target SARS-CoV-2 3CL-protease (Severe acute respiratory syndrome coronavirus 2 (2019-nCoV) (SARS-CoV-2), UniProt P0DTD1). The test is described as follows: SARS-CoV-2 3C-like (3CL) protease fluorescence assay (FRET). In kind it is biochemical.

Molecules are shown by their SMILES. Where two headings read alike, the source gives them in different places.

With `CC(C)C[C@H](NC(=O)OCc1ccccc1)C(=O)N1C[C@]2(C[C@H]1C#N)C(=O)Nc1ccccc12` [Compound 1], the IC50 (read-out: FRET IC50) was in the range of 100 to 1000 nM. As for `N#C[C@@H]1C[C@@]2(CN1C(=O)[C@H](CC1CCC1)NC(=O)OCc1ccccc1)C(=O)Nc1ccccc12` [Compound 2], the IC50 (read-out: FRET IC50) was less than 100 nM. The same measure, in the same setting: then `CC(C)(C)[C@H](NC(=O)OCc1ccccc1)C(=O)N1C[C@]2(C[C@H]1C#N)C(=O)Nc1ccccc12` [Compound 3], with more than 1000 nM; and `N#C[C@@H]1C[C@@]2(CN1C(=O)[C@H](CC1CC1)NC(=O)OCc1ccccc1)C(=O)Nc1ccccc12` [Compound 4], with less than 100 nM. Still for that read-out and setting: then `CC(C)(C)C[C@H](NC(=O)OCc1ccccc1)C(=O)N1C[C@]2(C[C@H]1C#N)C(=O)Nc1ccccc12` [Compound 5], with less than 100 nM. Regarding `CC(OC(C)(C)C)[C@H](NC(=O)OCc1ccccc1)C(=O)N1C[C@]2(C[C@H]1C#N)C(=O)Nc1ccccc12` (stereo partly shown) [Compound 6], the IC50 was more than 1000 nM. For the compound `CC(C)(F)C[C@H](NC(=O)OCc1ccccc1)C(=O)N1C[C@]2(C[C@H]1C#N)C(=O)Nc1ccccc12` [Compound 7], the IC50 (read-out: FRET IC50) is less than 100 nM. With `CC(C)C[C@H](NC(=O)OCC1(c2ccccc2)CC1)C(=O)N1C[C@]2(C[C@H]1C#N)C(=O)Nc1ccccc12` [Compound 8], the IC50 (read-out: FRET IC50) was less than 100 nM. On the same count and under the same terms, then `CC(C)C[C@H](NC(=O)OC(C)(C)c1cccc(Cl)c1)C(=O)N1C[C@]2(C[C@H]1C#N)C(=O)Nc1ccccc12` [Compound 9], with 100 to 1000 nM; and `CC(C)(C)OC[C@H](NC(=O)OCc1ccccc1)C(=O)N1C[C@]2(C[C@H]1C#N)C(=O)Nc1ccccc12` [Compound 10], with 100 to 1000 nM. For the compound `COc1cccc2[nH]c(C(=O)N[C@@H](CC(C)C)C(=O)N3C[C@]4(C[C@H]3C#N)C(=O)Nc3ccccc34)cc12` [Compound 11], under “read-out: FRET IC50”, the IC50 is less than 100 nM. On the same count and under the same terms, the same measure for `COc1cccc2[nH]c(C(=O)N[C@H](CC(C)C)C(=O)N3C[C@]4(C[C@H]3C#N)C(=O)Nc3ccccc34)cc12` [Compound 12]: more than 1000 nM; for `COc1cccc2[nH]c(C(=O)N[C@@H](CC3CCCCC3)C(=O)N3C[C@]4(C[C@H]3C#N)C(=O)Nc3ccccc34)cc12` [Compound 13]: less than 100 nM; for `COc1cccc2[nH]c(C(=O)N[C@H](CC3CCCCC3)C(=O)N3C[C@]4(C[C@H]3C#N)C(=O)Nc3ccccc34)cc12` [Compound 14]: 100 to 1000 nM. For `COc1cccc2[nH]c(C(=O)N[C@@H](CC(C)(C)C)C(=O)N3C[C@]4(C[C@H]3C#N)C(=O)Nc3ccccc34)cc12` [Compound 15], the IC50 (read-out: FRET IC50) was less than 100 nM. Consider `COc1cccc2[nH]c(C(=O)N[C@H](CC(C)(C)C)C(=O)N3C[C@]4(C[C@H]3C#N)C(=O)Nc3ccccc34)cc12` [Compound 16], for which, for the setting “read-out: FRET IC50”, the IC50 lay in the range of 100 to 1000 nM. Still for that read-out and setting: then `COc1cccc2[nH]c(C(=O)N[C@@H](CC3CCC3)C(=O)N3C[C@]4(C[C@H]3C#N)C(=O)Nc3ccccc34)cc12` [Compound 17], with less than 100 nM.

`CC(C)(C)[C@H](NC(=O)c1cc2c(F)cccc2[nH]1)C(=O)N1C[C@]2(C[C@H]1C#N)C(=O)Nc1ccccc12` [Compound 18]: the IC50 (read-out: FRET IC50) was more than 1000 nM. On to `COc1cccc2[nH]c(C(=O)N[C@@H](CC3CC3)C(=O)N3C[C@]4(C[C@H]3C#N)C(=O)Nc3ccccc34)cc12` [Compound 19], for which the IC50 (read-out: FRET IC50) was less than 100 nM. Regarding `CC(C)(C)C[C@H](NC(=O)c1cc2c(F)c(F)ccc2[nH]1)C(=O)N1C[C@]2(C[C@H]1C#N)C(=O)Nc1ccccc12` [Compound 20], the 50% inhibitory concentration (IC50) (read-out: FRET IC50) was less than 100 nM. With `COc1cccc2[nH]c(C(=O)N[C@H](C(=O)N3C[C@]4(C[C@H]3C#N)C(=O)Nc3ccccc34)C(C)OC(C)(C)C)cc12` (stereo partly shown) [Compound 22], the IC50 lay in the range of 100 to 1000 nM. On to `COc1cccc2[nH]c(C(=O)N[C@@H](CC(C)C)C(=O)N3C[C@]4(C[C@H]3C=O)C(=O)Nc3ccccc34)cc12` [Compound 23], for which the IC50 (read-out: FRET IC50) is less than 100 nM. For `CC(C)C[C@H](NC(=O)c1cc2c(F)cccc2[nH]1)C(=O)N1C[C@]2(C[C@H]1C=O)C(=O)Nc1ccccc12` [Compound 25], the IC50 (read-out: FRET IC50) was less than 100 nM. In the case of `COc1cc(C#N)cc2[nH]c(C(=O)N[C@@H](CC(C)C)C(=O)N3C[C@]4(C[C@H]3C#N)C(=O)Nc3ccccc34)cc12` [Compound 26], the IC50 (recombinant SARS-CoV-2 3CL-protease 10 nM, 30 min preincubation, run in duplicate, read-out: FRET IC50) is 100 to 1000 nM. For the compound `CC(C)C[C@H](NC(=O)c1cc2c(F)cccc2[nH]1)C(=O)N1C[C@]2(C[C@H]1C#N)C(=O)Nc1ccccc12` [Compound 27], the IC50 (read-out: FRET IC50) is less than 100 nM. Turning to `CC(C)C[C@H](NC(=O)c1cc2c(F)cccc2[nH]1)C(=O)N1C[C@]2(C[C@H]1C#N)C(=O)Nc1c(F)cccc12` [Compound 28], the IC50 (read-out: FRET IC50) was less than 100 nM. In the case of `COc1cccc2[nH]c(C(=O)N[C@@H](CC(C)C)C(=O)N3C[C@]4(C[C@H]3C(O)S(=O)(=O)O)C(=O)Nc3ccccc34)cc12` (stereo partly shown) [Compound 29], the IC50 (read-out: FRET IC50) is less than 100 nM. On the same count and under the same terms, then `CC(C)C[C@@H](C(=O)N1C[C@]2(C[C@H]1C(O)S(=O)(=O)O)C(=O)Nc1ccccc12)N(C)C(=O)c1cc2c(F)cccc2[nH]1` (stereo partly shown) [Compound 30], with less than 100 nM. Same read-out and setting: then `COc1cccc2[nH]c(C(=O)N[C@@H](CC(C)C)C(=O)N3C[C@]4(C[C@H]3C(=O)C(=O)NC3CC3)C(=O)Nc3ccccc34)cc12` [Compound 31], with 100 to 1000 nM; and `COc1cccc2[nH]c(C(=O)N[C@@H](CC(C)C)C(=O)N3C[C@]4(C[C@H]3C(=O)C(=O)NCc3ccccc3)C(=O)Nc3ccccc34)cc12` [Compound 32], with less than 100 nM; and `COc1cccc2[nH]c(C(=O)N[C@@H](CC(C)C)C(=O)N3C[C@]4(C[C@H]3C(=O)C(=O)NC3CCCCC3)C(=O)Nc3ccccc34)cc12` [Compound 33], with less than 100 nM.

On to `COc1cccc2[nH]c(C(=O)N(C)[C@@H](CC(C)C)C(=O)N3C[C@]4(C[C@H]3C(=O)C(=O)NC3CCCCC3)C(=O)Nc3ccccc34)cc12` [Compound 34], for which the IC50 (read-out: FRET IC50) was more than 1000 nM. As to `CC(C)C[C@@H](C(=O)N1C[C@]2(C[C@H]1C(=O)C(=O)NC1CCCCC1)C(=O)Nc1ccccc12)N(C)C(=O)c1cc2c(F)cccc2[nH]1` [Compound 35], the IC50 (read-out: FRET IC50) was more than 1000 nM. As to `CC(C)C[C@@H](C(=O)N1C[C@]2(C[C@H]1C(=O)C(=O)NC1CC1)C(=O)Nc1ccccc12)N(C)C(=O)c1cc2c(F)cccc2[nH]1` [Compound 36], for the setting “read-out: FRET IC50”, the IC50 fell in the range of 100 to 1000 nM. Take `COc1cccc2[nH]c(C(=O)N[C@@H](CC(C)C)C(=O)N3C[C@]4(C[C@H]3C(=O)O)C(=O)Nc3ccccc34)cc12` [Compound 37]: the IC50 (read-out: FRET IC50) lay in the range of 100 to 1000 nM. Regarding `COc1cccc2[nH]c(C(=O)N[C@@H](CC(C)C)C(=O)N3C[C@]4(C[C@H]3C(=O)NS(=O)(=O)C3CC3)C(=O)Nc3ccccc34)cc12` [Compound 38], the IC50 (read-out: FRET IC50) was more than 1000 nM. On the same count and under the same terms, the same measure for `CC(C)C[C@@H](C(=O)N1C[C@]2(C[C@H]1C#N)C(=O)Nc1ccccc12)N(C)C(=O)OCc1ccccc1` [Compound 39]: less than 100 nM.

Take `CN(C(=O)OCc1ccccc1)[C@@H](CC(C)(C)C)C(=O)N1C[C@]2(C[C@H]1C#N)C(=O)Nc1ccccc12` [Compound 40]: the IC50 (read-out: FRET IC50) was less than 100 nM. In the case of `COc1cccc2[nH]c(C(=O)N(C)[C@@H](CC(C)C)C(=O)N3C[C@]4(C[C@H]3C#N)C(=O)Nc3ccccc34)cc12` [Compound 42], the IC50 (read-out: FRET IC50) was less than 100 nM.

As to `CC(C)C[C@@H](C(=O)N1C[C@]2(C[C@H]1C#N)C(=O)Nc1ccccc12)N(C)C(=O)c1sc2cc(F)ccc2c1Cl` [Compound 43], where the note is “read-out: FRET IC50”, the IC50 is 100 to 1000 nM.
